Experimental data reported in patent publication US9115143B2, “Substituted indole derivatives as gamma secretase modulators” (Janssen Pharmaceuticals, Inc., priority 2011, dated 2015).

Assays:
[1] = tested on: Aβtotal; assay: Screening for γ-secretase-modulating activity: Aβtotal in supernatant of SKNBE2 cells carrying hAPP 695 wild type (Alphalisa); format: cell-based, human; conditions: overnight incubation, Alphalisa on supernatant
Summary of the method: (§1)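 SKNBE2 human neuroblastoma cells expressing wild-type hAPP 695 (10^4/well) were incubated overnight at 37 °C, 5% CO2 with compound at several concentrations. Supernatant Aβ42 and Aβtotal measured by AlphaLISA sandwich immunoassays; IC50 from 4-parameter fit of percent of untreated control versus log concentration.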

[2] = tested on: Aβ42; assay: Screening for γ-secretase-modulating activity: Aβ42 in supernatant of SKNBE2 cells carrying hAPP 695 wild type (Alphalisa); format: cell-based, human; conditions: overnight incubation, Alphalisa on supernatant
Summary of the method: as §1

[3] = Homo sapiens, SKNBE2, SKNBE2 human neuroblastoma cells carrying hAPP 695 wild type
[4] = SKNBE2 human neuroblastoma cells carrying hAPP 695 wild type

**Q.** With `Cc1cc(F)ccc1C1OCCn2nc(-c3cc4cc(C#N)ccc4[nH]3)nc21` (single isomer, unassigned) [Compound 97, 2-[8-(4-fluoro-2-methylphenyl)-5,6-dihydro-8H-[1,2,4]triazolo[5,1-c][1,4]oxazin-2-yl]-1H-indole-5-carbonitrile] as the molecule, how does the IC50 [1, 3] read?
**A.** > 10000 nM

**Q.** What about the IC50 [2, 4] of the same molecule?
**A.** 219 nM

**Q.** What about the melting point of the same molecule?
**A.** 255 °C

**Q.** Which IC50 [1, 4] does the source give for `Cc1cc(F)ccc1C1OCCn2nc(-c3cc4cc(C#N)ccc4[nH]3)nc21` (single isomer, unassigned) [Compound 98, 2-[8-(4-fluoro-2-methylphenyl)-5,6-dihydro-8H-[1,2,4]triazolo[5,1-c][1,4]oxazin-2-yl]-1H-indole-5-carbonitrile] here?
**A.** > 10000 nM

**Q.** And the IC50 [2, 4]?
**A.** 5500 nM

**Q.** What about the melting point of the same molecule?
**A.** 253.5 °C

**Q.** With `Cc1cn(-c2ccc3[nH]c(-c4nc5n(n4)CCOC5c4ccc(F)cc4C)cc3c2)cn1` (single isomer, unassigned) [Compound 109, 8-(4-fluoro-2-methylphenyl)-5,6-dihydro-2-[5-(4-methyl-1H-imidazol-1-yl)-1H-indol-2-yl]-8H-[1,2,4]triazolo[5,1-c][1,4]oxazine] as the molecule, how does the IC50 [1, 3] read?
**A.** > 10000 nM

**Q.** And the IC50 [2, 4]?
**A.** 537 nM

**Q.** What about the melting point of the same molecule?
**A.** 278.9 °C

**Q.** Which IC50 [1, 4] does the source give for `Cc1cn(-c2ccc3[nH]c(-c4nc5n(n4)CCOC5c4ccc(F)cc4C)cc3c2)cn1` (single isomer, unassigned) [Compound 110, 8-(4-fluoro-2-methylphenyl)-5,6-dihydro-2-[5-(4-methyl-1H-imidazol-1-yl)-1H-indol-2-yl]-8H-[1,2,4]triazolo[5,1-c][1,4]oxazine] here?
**A.** > 10000 nM

**Q.** What about the IC50 [2, 4] of the same molecule?
**A.** 36 nM

**Q.** What about the melting point of the same molecule?
**A.** 278 °C

**Q.** For `Cc1c(F)cccc1C1OCCn2nc(-c3cc4cc(C#N)ccc4[nH]3)nc21` (centres unmarked) [Compound 1, 2-[8-(3-fluoro-2-methylphenyl)-5,6-dihydro-8H-[1,2,4]triazolo[5,1-c][1,4]oxazin-2-yl]-1H-indole-5-carbonitrile], which IC50 [1, 3] is on record?
**A.** > 10000 nM

**Q.** And the IC50 [2, 3]?
**A.** 295 nM

**Q.** What about the melting point of the same molecule?
**A.** 225.2 °C

**Q.** With `COc1ccccc1C1CCCn2nc(-c3cc4cc(C#N)ccc4[nH]3)nc21` (centres unmarked) [Compound 19, 2-[5,6,7,8-tetrahydro-8-(2-methoxyphenyl)[1,2,4]triazolo[1,5-a]pyridin-2-yl]-1H-indole-5-carbonitrile] as the molecule, how does the IC50 [1, 3] read?
**A.** > 10000 nM

**Q.** What about the IC50 [2, 3] of the same molecule?
**A.** 661 nM

**Q.** What about the melting point of the same molecule?
**A.** 139.6 °C

**Q.** With `N#Cc1ccc2[nH]c(-c3nc4n(n3)CCCC4c3cc(C(F)(F)F)ccc3F)cc2c1` (centres unmarked) [Compound 21, 2-[8-[2-fluoro-5-(trifluoromethyl)phenyl]-5,6,7,8-tetrahydro[1,2,4]triazolo[1,5-a]pyridin-2-yl]-1H-indole-5-carbonitrile] as the molecule, how does the IC50 [1, 3] read?
**A.** > 10000 nM

**Q.** And the IC50 [2, 3]?
**A.** 355 nM

**Q.** And the melting point?
**A.** 184.3 °C

**Q.** For `N#Cc1ccc2[nH]c(-c3nc4n(n3)CCCC4c3ccc(F)cc3C(F)(F)F)cc2c1` (centres unmarked) [Compound 22, 2-[8-[4-fluoro-2-(trifluoromethyl)phenyl]-5,6,7,8-tetrahydro[1,2,4]triazolo[1,5-a]pyridin-2-yl]-1H-indole-5-carbonitrile], which IC50 [1, 3] is on record?
**A.** > 10000 nM

**Q.** And the IC50 [2, 3]?
**A.** 138 nM

**Q.** What about the melting point of the same molecule?
**A.** 265 °C

**Q.** With `Cc1ccccc1C1CCCn2nc(-c3cc4nc(C#N)ccc4[nH]3)nc21` (centres unmarked) [Compound 25, 2-[5,6,7,8-tetrahydro-8-(2-methylphenyl)[1,2,4]triazolo[1,5-a]pyridin-2-yl]-1H-pyrrolo[3,2-b]pyridine-5-carbonitrile] as the molecule, how does the IC50 [1, 3] read?
**A.** > 10000 nM

**Q.** What about the IC50 [2, 3] of the same molecule?
**A.** 398 nM

**Q.** What about the melting point of the same molecule?
**A.** 264.9 °C

**Q.** With `N#Cc1ccc2[nH]c(-c3nc4n(n3)CCCC4c3ccccc3C(F)(F)F)cc2n1` (centres unmarked) [Compound 26, 2-[5,6,7,8-tetrahydro-8-[2-(trifluoromethyl)phenyl][1,2,4]triazolo[1,5-a]pyridin-2-yl]-1H-pyrrolo[3,2-b]pyridine-5-carbonitrile] as the molecule, how does the IC50 [1, 3] read?
**A.** > 10000 nM

**Q.** And the IC50 [2, 3]?
**A.** 331 nM

**Q.** And the melting point?
**A.** 272.3 °C

**Q.** For `COc1ccc2[nH]c(-c3nc4n(n3)CCCC4c3ccccc3C(F)(F)F)cc2c1` (centres unmarked) [Compound 29, 5,6,7,8-tetrahydro-2-(5-methoxy-1H-indol-2-yl)-8-[2-(trifluoromethyl)phenyl]-[1,2,4]triazolo[1,5-a]pyridine], which IC50 [1, 3] is on record?
**A.** > 15100 nM

**Q.** What about the IC50 [2, 3] of the same molecule?
**A.** 4790 nM

**Q.** And the melting point?
**A.** 183 °C

**Q.** What does the source list for `Cc1ccccc1C1CCCn2nc(-c3cc4cc(-c5cnn(C)c5)ccc4[nH]3)nc21` (centres unmarked) [Compound 31, 5,6,7,8-tetrahydro-8-(2-methylphenyl)-2-[5-(1-methyl-1H-pyrazol-4-yl)-1H-indol-2-yl]-[1,2,4]triazolo[1,5-a]pyridine]?
**A.** IC50 [1, 3]: > 10000 nM; IC50 [2, 3]: 76 nM; melting point: 223.8 °C

**Q.** Which IC50 [1, 3] does the source give for `Cc1cc(F)ccc1C1CCCn2nc(-c3cc4nc(-c5cnn(C)c5)ccc4[nH]3)nc21` (centres unmarked) [Compound 32, 8-(4-fluoro-2-methylphenyl)-5,6,7,8-tetrahydro-2-[5-(1-methyl-1H-pyrazol-4-yl)-1H-pyrrolo[3,2-b]pyridin-2-yl]-[1,2,4]triazolo[1,5-a]pyridine] here?
**A.** > 10000 nM

**Q.** What about the IC50 [2, 4] of the same molecule?
**A.** 148 nM

**Q.** And the melting point?
**A.** 281.7 °C

**Q.** Which IC50 [1, 3] does the source give for `Cc1cc(-c2ccc3[nH]c(-c4nc5n(n4)CCCC5c4ccc(F)cc4C)cc3n2)ccn1` (centres unmarked) [Compound 33, 8-(4-fluoro-2-methylphenyl)-5,6,7,8-tetrahydro-2-[5-(2-methyl-4-pyridinyl)-1H-pyrrolo[3,2-b]pyridin-2-yl]-[1,2,4]triazolo[1,5-a]pyridine] here?
**A.** > 10000 nM

**Q.** And the IC50 [2, 3]?
**A.** 49 nM

**Q.** And the melting point?
**A.** 267.2 °C

**Q.** Which results are given for `Cc1cn(-c2ccc3[nH]c(-c4nc5n(n4)CCOC5c4cccc(F)c4C)cc3c2)cn1` (centres unmarked) [Compound 36, 8-(3-fluoro-2-methylphenyl)-5,6-dihydro-2-[5-(4-methyl-1H-imidazol-1-yl)-1H-indol-2-yl]-8H-[1,2,4]triazolo[5,1-c][1,4]oxazine]?
**A.** IC50 [1, 3]: > 10000 nM; IC50 [2, 3]: 62 nM; melting point: 261.3 °C

**Q.** What does the source list for `N#Cc1ccc2[nH]c(-c3nc4n(n3)CCCC4c3ccccc3C(F)(F)F)nc2c1` (centres unmarked) [Compound 38, 2-[5,6,7,8-tetrahydro-8-[2-(trifluoromethyl)phenyl][1,2,4]triazolo[1,5-a]pyridin-2-yl]-1H-benzimidazole-5-carbonitrile]?
**A.** IC50 [1, 3]: > 10000 nM; IC50 [2, 3]: 871 nM; melting point: 252.2 °C

**Q.** For `COc1c(C#N)ccc2[nH]c(-c3cn4c(n3)C(c3ccc(F)cc3C)OCC4)cc12` (centres unmarked) [Compound 48, 2-[8-(4-fluoro-2-methylphenyl)-5,6-dihydro-8H-imidazo[2,1-c][1,4]oxazin-2-yl]-4-methoxy-1H-indole-5-carbonitrile], which IC50 [1, 4] is on record?
**A.** > 10000 nM

**Q.** What about the IC50 [2, 4] of the same molecule?
**A.** 1020 nM

**Q.** What about the melting point of the same molecule?
**A.** 244.4 °C

**Q.** Which IC50 [1, 4] does the source give for `COc1c(C#N)ccc2[nH]c(-c3cn4c(n3)C(c3ccccc3Cl)OCC4)cc12` (centres unmarked) [Compound 51, 2-[8-(2-chlorophenyl)-5,6-dihydro-8H-imidazo[2,1-c][1,4]oxazin-2-yl]-4-methoxy-1H-indole-5-carbonitrile] here?
**A.** > 10000 nM

**Q.** What about the IC50 [2, 4] of the same molecule?
**A.** 708 nM

**Q.** And the melting point?
**A.** 255.6 °C

**Q.** Which results are given for `COc1c(C#N)ccc2[nH]c(-c3nc4n(n3)CCCC4(O)c3ccc(F)cc3C)cc12` (centres unmarked) [Compound 60, 2-[8-(4-fluoro-2-methylphenyl)-5,6,7,8-tetrahydro-8-hydroxy[1,2,4]triazolo[1,5-a]pyridin-2-yl]-4-methoxy-1H-indole-5-carbonitrile]?
**A.** IC50 [1, 3]: > 10000 nM; IC50 [2, 3]: 138 nM; melting point: 287.1 °C

**Q.** For `COCCOc1c(C#N)ccc2[nH]c(-c3cn4c(n3)C(c3ccc(F)cc3C)OCC4)cc12` (centres unmarked) [Compound 167, 2-[8-(4-fluoro-2-methylphenyl)-5,6-dihydro-8H-imidazo[2,1-c][1,4]oxazin-2-yl]-4-(2-methoxyethoxy)-1H-indole-5-carbonitrile], which IC50 [1, 3] is on record?
**A.** > 10000 nM

**Q.** And the IC50 [2, 3]?
**A.** 257 nM

**Q.** For `Cc1cc(F)ccc1C1OCCn2nc(-c3cc4c(OCC(F)F)c(C#N)ccc4[nH]3)nc21` (centres unmarked) [Compound 168, 4-(2,2-difluoroethoxy)-2-[8-(4-fluoro-2-methylphenyl)-5,6-dihydro-8H-[1,2,4]triazolo[5,1-c][1,4]oxazin-2-yl]-1H-indole-5-carbonitrile], which IC50 [1, 3] is on record?
**A.** > 10000 nM

**Q.** What about the IC50 [2, 3] of the same molecule?
**A.** 245 nM

**Q.** Which IC50 [1, 3] does the source give for `CCOc1c(C#N)ccc2[nH]c(-c3nc4n(n3)CCOC4c3ccc(F)cc3C)cc12` (centres unmarked) [Compound 171, 4-ethoxy-2-[8-(4-fluoro-2-methylphenyl)-5,6-dihydro-8H-[1,2,4]triazolo[5,1-c][1,4]oxazin-2-yl]-1H-indole-5-carbonitrile] here?
**A.** > 10000 nM

**Q.** What about the IC50 [2, 3] of the same molecule?
**A.** 151 nM

**Q.** Which results are given for `Cc1cc(F)ccc1C1CCCn2nc(-c3nc4cc(-n5cncc5C)ccc4[nH]3)nc21` (centres unmarked) [Compound 177, 8-(4-fluoro-2-methylphenyl)-5,6,7,8-tetrahydro-2-[5-(5-methyl-1H-imidazol-1-yl)-1H-benzimidazol-2-yl]-[1,2,4]triazolo[1,5-a]pyridine]?
**A.** IC50 [1, 3]: > 10000 nM; IC50 [2, 3]: 2510 nM

**Q.** For `Cc1cn(-c2ccc3[nH]c(-c4nc5n(n4)CCCC5c4ccc(F)cc4C)nc3c2)cn1` (centres unmarked) [Compound 179, 8-(4-fluoro-2-methylphenyl)-5,6,7,8-tetrahydro-2-[5-(4-methyl-1H-imidazol-1-yl)-1H-benzimidazol-2-yl]-[1,2,4]triazolo[1,5-a]pyridine], which IC50 [1, 3] is on record?
**A.** > 10000 nM

**Q.** What about the IC50 [2, 4] of the same molecule?
**A.** 407 nM

**Q.** Which IC50 [1, 3] does the source give for `COc1c(C#N)ccc2[nH]c(-c3cn4c(n3)COCC4(C)c3cc(C(F)(F)F)ccc3F)cc12` (centres unmarked) [Compound 183, 2-[5-[2-fluoro-5-(trifluoromethyl)phenyl]-5,6-dihydro-5-methyl-8H-imidazo[2,1-c][1,4]oxazin-2-yl]-4-methoxy-1H-indole-5-carbonitrile] here?
**A.** > 10000 nM

**Q.** What about the IC50 [2, 3] of the same molecule?
**A.** 2880 nM

**Q.** For `COc1c(C#N)ccc2[nH]c(-c3cn4c(n3)COCC4c3ccccc3)cc12` (centres unmarked) [Compound 184, 2-(5,6-dihydro-5-phenyl-8H-imidazo[2,1-c][1,4]oxazin-2-yl)-4-methoxy-1H-indole-5-carbonitrile], which IC50 [1, 3] is on record?
**A.** 5370 nM

**Q.** What about the IC50 [2, 3] of the same molecule?
**A.** 3090 nM
